Data: PubChem BioAssay AID220 (DTP/NCI, 2004)
Where “and” joins values, the source holds several entries; their conditions need not be identical. Equal values may be shown once. Inconclusive results are not listed.

Tested on: CD8F1 mice, subcutaneous mammary adenocarcinoma, T/C%
Test: NCI In Vivo Anticancer Drug Screen. Data for tumor model Mammary Adenocarcinoma CD8F1 (subcutaneous) in CD8F1
Conditions: higher = larger tumour
Outline: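 Antitumor activity is assessed in transplantable-tumor mice by comparing the treated group with a vehicle-treated control group. Survival or tumor size serves as the measure, reported as T divided by C.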

[1] = endpoint: median tumor weight (est.), dose: 64.0 mg/kg/injection, schedule: Q07DX005 (ip), vehicle: saline
[2] = endpoint: median tumor weight change, dose: 4.0 mg/kg/injection, schedule: Q01DX001 (ip), vehicle: saline

## OCC1(CO)COC2(CCCCC2)N1
endpoint: median tumor weight (est.), dose: 12.5 mg/kg/injection, schedule: Q07DX005 (ip), vehicle: saline
  T/C: 78 % of control
endpoint: median tumor weight (est.), dose: 25.0 mg/kg/injection, schedule: Q07DX005 (ip), vehicle: saline
  T/C: 64 % of control
endpoint: median tumor weight (est.), dose: 50.0 mg/kg/injection, schedule: Q07DX005 (ip), vehicle: saline
  T/C: 112 % of control
endpoint: median tumor weight (est.), dose: 100.0 mg/kg/injection, schedule: Q07DX005 (ip), vehicle: saline
  T/C: 105 % of control
endpoint: median tumor weight (est.), dose: 200.0 mg/kg/injection, schedule: Q07DX005 (ip), vehicle: saline
  T/C: 81 % of control
endpoint: median tumor weight (est.), dose: 400.0 mg/kg/injection, schedule: Q07DX005 (ip), vehicle: saline
  T/C: 93 % of control

## [Cl][Mn][Cl]
[1]
  T/C: 111 % of control
endpoint: median tumor weight (est.), dose: 128.0 mg/kg/injection, schedule: Q07DX005 (ip), vehicle: saline
  T/C: 66 % of control

## Cc1c(N)nc([C@H](CC(N)=O)NC[C@H](N)C(N)=O)nc1C(=O)N[C@H](C(=O)N[C@H](C)[C@@H](O)[C@H](C)C(=O)N[C@H](C(=O)NCCc1nc(-c2nc(C(=O)NCCC[S+](C)C)cs2)cs1)[C@@H](C)O)C(OC1OC(CO)C(O)C(O)C1OC1OC(CO)C(O)C(OC(N)=O)C1O)c1cnc[nH]1 (stereo partly drawn)
endpoint: median tumor weight (est.), dose: 1.0 mg/kg/injection, schedule: Q07DX006 (ip), vehicle: saline
  T/C: 93 % of control
endpoint: median tumor weight (est.), dose: 2.0 mg/kg/injection, schedule: Q07DX005 (ip), vehicle: saline
  T/C: 25 % of control
endpoint: median tumor weight (est.), dose: 2.0 mg/kg/injection, schedule: Q07DX006 (ip), vehicle: saline
  T/C: 100 % of control
endpoint: median tumor weight (est.), dose: 8.0 mg/kg/injection, schedule: Q07DX006 (ip), vehicle: saline
  T/C: 55 % of control
endpoint: median tumor weight (est.), dose: 16.0 mg/kg/injection, schedule: Q07DX005 (ip), vehicle: saline
  T/C: 10 % of control and 13 % of control and 23 % of control
endpoint: median tumor weight (est.), dose: 16.0 mg/kg/injection, schedule: Q07DX006 (ip), vehicle: saline
  T/C: 61 % of control
endpoint: median tumor weight (est.), dose: 32.0 mg/kg/injection, schedule: Q07DX005 (ip), vehicle: saline
  T/C: 6 % of control and 7 % of control
endpoint: median tumor weight (est.), dose: 32.0 mg/kg/injection, schedule: Q07DX006 (ip), vehicle: saline
  T/C: 8 % of control
[1]
  T/C: 2 % of control
[2]
  T/C: 124 % of control

## N#CC(=C1SCS1)[N+](=O)[O-]
endpoint: median tumor weight change, dose: 7.5 mg/kg/injection, schedule: Q01DX001 (ip), vehicle: saline with Tween-80
  T/C: 83 % of control
endpoint: median tumor weight change, dose: 15.0 mg/kg/injection, schedule: Q01DX001 (ip), vehicle: saline with Tween-80
  T/C: 90 % of control
endpoint: median tumor weight change, dose: 30.0 mg/kg/injection, schedule: Q01DX001 (ip), vehicle: saline with Tween-80
  T/C: 152 % of control
endpoint: median tumor weight change, dose: 60.0 mg/kg/injection, schedule: Q01DX001 (ip), vehicle: saline with Tween-80
  T/C: 48 % of control

## CC(=O)CC(=O)CCC(=O)O
endpoint: median tumor weight change, dose: 125.0 mg/kg/injection, schedule: Q01DX001 (ip), vehicle: saline
  T/C: 62 % of control
endpoint: median tumor weight change, dose: 250.0 mg/kg/injection, schedule: Q01DX001 (ip), vehicle: saline
  T/C: 65 % of control

## NC(=O)c1cn(C2OC(CO)C(O)C2O)c2ncnc(N)c12 (stereo not drawn)
endpoint: median tumor weight (est.), dose: 1.0 mg/kg/injection, schedule: Q07DX005 (ip), vehicle: suspension in saline
  T/C: 63 % of control
endpoint: median tumor weight (est.), dose: 2.0 mg/kg/injection, schedule: Q07DX005 (ip), vehicle: suspension in saline
  T/C: 27 % of control and 45 % of control
endpoint: median tumor weight change, dose: 0.25 mg/kg/injection, schedule: Q01DX001 (ip), vehicle: saline
  T/C: 121 % of control
endpoint: median tumor weight change, dose: 0.5 mg/kg/injection, schedule: Q01DX001 (ip), vehicle: saline
  T/C: 91 % of control
endpoint: median tumor weight change, dose: 1.0 mg/kg/injection, schedule: Q01DX001 (ip), vehicle: saline
  T/C: 81 % of control
endpoint: median tumor weight change, dose: 1.25 mg/kg/injection, schedule: Q01DX001 (ip), vehicle: suspension in saline
  T/C: 88 % of control
endpoint: median tumor weight change, dose: 2.0 mg/kg/injection, schedule: Q01DX001 (ip), vehicle: saline
  T/C: 107 % of control
endpoint: median tumor weight change, dose: 2.5 mg/kg/injection, schedule: Q01DX001 (ip), vehicle: suspension in saline
  T/C: 102 % of control
[2]
  T/C: 95 % of control
endpoint: median tumor weight change, dose: 5.0 mg/kg/injection, schedule: Q01DX001 (ip), vehicle: suspension in saline
  T/C: 70 % of control
endpoint: median tumor weight change, dose: 8.0 mg/kg/injection, schedule: Q01DX001 (ip), vehicle: saline
  T/C: 79 % of control

## C=C1C(=O)OCC1C(=O)O (stereo not drawn)
endpoint: median tumor weight change, dose: 15.62 mg/kg/injection, schedule: Q01DX001 (ip), vehicle: suspension in saline
  T/C: 101 % of control
endpoint: median tumor weight change, dose: 62.5 mg/kg/injection, schedule: Q01DX001 (ip), vehicle: suspension in saline
  T/C: 89 % of control
endpoint: median tumor weight change, dose: 125.0 mg/kg/injection, schedule: Q01DX001 (ip), vehicle: suspension in saline
  T/C: 123 % of control
